# Measured values reported in ChEMBL document CHEMBL1123054, “Synthesis and dopamine autoreceptor activity of a 5-(methylmercapto)methyl-substituted derivative of (+/-)-3-PPP (3-(3-hydroxyphenyl)-1-n-propylpiperidine)” (J Med Chem, 1985).
# Key:
# Rattus norvegicus [1] = organism: Rattus norvegicus; assay: In vitro inhibitory activity was determined against dopamine synthesis in rat striatal synaptosomes; conditions: Brain
# Mus musculus [2] = assay: Dose required to produce convulsions in mouse was determined after subcutaneously administration; type: functional
# Mus musculus [3] = assay: Dopa accumulation induced by GBL was measured in mouse after subcutaneous administration of 32 umol/kg of compound; type: functional
# Rattus norvegicus [4] = organism: Rattus norvegicus; assay: In vitro inhibitory activity was determined against dopamine synthesis in rat striatal synaptosomes; conditions: Brain; remark: listed apart in the source
IC50 (Rattus norvegicus [1]),Compound,Dose (Mus musculus [2]),Accumulation (Mus musculus [3]),IC50 (Rattus norvegicus [4])
45 µM,CCCN1C[C@H](CSC)C[C@H](c2cccc(O)c2)C1,100 µM/kg,89%,
,CCCN1CCCC(c2cccc(O)c2)C1 (stereo not given),,60%,55 µM
